Experimental data published in article PMC2248166, “Quantitative peptide binding motifs for 19 human and mouse MHC class I molecules derived using positional scanning combinatorial peptide libraries” (Immunome Research, 2008).

Assays:
Type in all cases: binding
HLA B*1501 = HLA B*1501 (Homo sapiens, UniProt P01889, A329T/A93T/A95T/C349S/D201E/D98Y/E187L/E204Q/E69M/E70A/K202T/N87E/Q94N/R155S/R180W/S121R/S35A/S48A/V306I/V36M/Y140S/Y91S); assay: biochemical
HLA B*5401 = HLA B*5401 (Homo sapiens, UniProt P01889, A329T/C349S/D138N/D201E/E176V/E187T/E204Q/E69G/I76V/K202T/L119W/R155S/R180L/S121T/S35A/S48A/V127L/V306I/V36M/Y140L)
HLA B*5801 = HLA B*5801 (Homo sapiens, UniProt P01889, A329T/C349S/D201E/D98Y/E176V/E187L/E204Q/E69T/G107R/I218V/I90N/K202T/L105A/L119I/N104I/N87E/Q89R/Q94S/R106L/R155S/R180L/R86G/S101N/S121R/S35A/S48A/T118I/V127L/V306I/V36M/Y140S/Y91M)
H-2 D^d = H-2 D^d (Mus musculus, UniProt P01900)
HLA B*5101 = HLA B*5101 (Homo sapiens, UniProt P01889, A329T/A93T/A95T/C349S/D138N/D201E/D98Y/E187L/E204Q/E69T/G107R/I218V/K202T/L105A/L119W/N104I/Q94N/R106L/R155S/R180L/S101N/S121T/S35A/S48A/V306I/V36M/Y195H/Y91F)
HLA A*3001 = HLA A*3001 (Homo sapiens, UniProt P04439, D140H/D185E/E176W/F33S/G80R/H175R/K168Q/R138E/R41S); assay: biochemical
HLA A*3201 = HLA A*3201 (Homo sapiens, UniProt P04439, A270S/D101S/D185E/E176V/E277Q/F133L/G103R/G107R/G231S/H175R/I121M/I218V/I322F/K168Q/L105A/L300P/L318F/M331R/P208A/P217A/Q94H/R106L/R138Q/S129P/T104I/T323A/T345S/V100E/V321M/V358M); assay: biochemical
H-2 K^k = H-2 K^k (Mus musculus, UniProt P04223)
H-2 K^d = H-2 K^d (Mus musculus, UniProt P01902)
HLA B*5301 = HLA B*5301 (Homo sapiens, UniProt P01889, A329T/A93T/A95T/C349S/D201E/D98Y/E176V/E187L/E204Q/E69T/G107R/I218V/K202T/L105A/L119I/N104I/Q94N/R106L/R155S/R180L/S101N/S121R/S35A/S48A/T118I/V127L/V306I/V36M/Y140S/Y91F)
HLA B*5802 = HLA B*5802 (Homo sapiens, UniProt P01889, A329T/C349S/D201E/D98Y/E176V/E187L/E204Q/E69T/G107R/I218V/I90N/K202T/L105A/N104I/N87E/Q89R/Q94S/R106L/R155S/R180L/R86G/S101N/S121W/S35A/S48A/V127L/V306I/V36M/Y140S/Y91M)
HLA B*1503 = HLA B*1503 (Homo sapiens, UniProt P01889, A329T/A93T/A95T/C349S/D201E/D98Y/E187L/E204Q/K202T/N87E/Q94N/R155S/R180L/S121R/S35A/V306I/V36M/Y140S/Y91S); assay: biochemical
HLA A*6802 = HLA A*6802 (Homo sapiens, UniProt P04439, A269V/D140Y/D185E/E176V/E277Q/E87N/F33Y/G231S/I121R/I166T/I218V/L180W/L300P/L318F/N151K/P208A/P217A/Q86R/R138H/R169H/S129P/T345S/V36M)
HLA B*3501 = HLA B*3501 (Homo sapiens, UniProt P01889, A329T/A93T/A95T/C349S/D201E/D98Y/E176V/E187L/E204Q/E69T/I218V/K202T/L119I/Q94N/R155S/R180L/S121R/S35A/S48A/T118I/V127L/V306I/V36M/Y140S/Y91F)
H-2 D^b = H-2 D^b (Mus musculus, UniProt P01899)
HLA B*0801 = HLA B*0801 (Homo sapiens, UniProt P01889, A93T/A95T/D138N/E176V/E187T/K202T/Q94N/R180D/S35A/V36M/Y33D/Y91F); assay: biochemical

H-2 K^k, sequence (P01887 21-119): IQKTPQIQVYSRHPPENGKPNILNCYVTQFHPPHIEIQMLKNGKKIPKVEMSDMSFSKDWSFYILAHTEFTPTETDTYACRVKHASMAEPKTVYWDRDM
H-2 K^k, sequence (P04223 22-369): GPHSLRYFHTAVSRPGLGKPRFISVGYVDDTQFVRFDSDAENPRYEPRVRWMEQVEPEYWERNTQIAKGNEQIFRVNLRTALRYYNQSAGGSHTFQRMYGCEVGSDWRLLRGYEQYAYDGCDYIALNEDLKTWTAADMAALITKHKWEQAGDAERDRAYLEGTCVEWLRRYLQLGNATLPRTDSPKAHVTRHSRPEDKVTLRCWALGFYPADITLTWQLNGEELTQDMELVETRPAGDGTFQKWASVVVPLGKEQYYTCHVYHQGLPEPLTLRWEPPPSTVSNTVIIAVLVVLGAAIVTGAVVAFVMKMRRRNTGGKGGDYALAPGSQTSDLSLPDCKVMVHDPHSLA
H-2 D^b, sequence (P01887 21-119): as the sequence (P01887 21-119) above
H-2 D^b, sequence (P01899 25-362): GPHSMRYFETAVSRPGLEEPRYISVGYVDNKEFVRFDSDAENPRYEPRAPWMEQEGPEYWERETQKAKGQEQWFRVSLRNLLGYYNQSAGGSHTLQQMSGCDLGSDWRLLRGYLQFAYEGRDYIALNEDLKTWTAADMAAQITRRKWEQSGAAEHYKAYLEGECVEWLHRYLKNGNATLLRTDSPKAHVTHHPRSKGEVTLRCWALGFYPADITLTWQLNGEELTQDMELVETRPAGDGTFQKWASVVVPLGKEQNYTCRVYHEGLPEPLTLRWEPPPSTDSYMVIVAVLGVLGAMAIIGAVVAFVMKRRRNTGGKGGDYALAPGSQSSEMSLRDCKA
H-2 K^d, sequence (P01887 21-119): as the sequence (P01887 21-119) above
H-2 K^d, sequence (P01902 22-368): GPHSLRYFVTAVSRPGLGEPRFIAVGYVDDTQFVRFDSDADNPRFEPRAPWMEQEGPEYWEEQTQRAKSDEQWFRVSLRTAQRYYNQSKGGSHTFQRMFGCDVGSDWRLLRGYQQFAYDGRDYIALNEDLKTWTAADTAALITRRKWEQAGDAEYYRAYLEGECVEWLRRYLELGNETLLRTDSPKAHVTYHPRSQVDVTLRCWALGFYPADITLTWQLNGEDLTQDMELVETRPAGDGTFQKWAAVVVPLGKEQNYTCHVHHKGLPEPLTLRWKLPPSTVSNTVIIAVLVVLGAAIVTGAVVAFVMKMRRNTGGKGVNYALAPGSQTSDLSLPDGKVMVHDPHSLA
H-2 D^d, sequence (P01900 whole entry, looked up): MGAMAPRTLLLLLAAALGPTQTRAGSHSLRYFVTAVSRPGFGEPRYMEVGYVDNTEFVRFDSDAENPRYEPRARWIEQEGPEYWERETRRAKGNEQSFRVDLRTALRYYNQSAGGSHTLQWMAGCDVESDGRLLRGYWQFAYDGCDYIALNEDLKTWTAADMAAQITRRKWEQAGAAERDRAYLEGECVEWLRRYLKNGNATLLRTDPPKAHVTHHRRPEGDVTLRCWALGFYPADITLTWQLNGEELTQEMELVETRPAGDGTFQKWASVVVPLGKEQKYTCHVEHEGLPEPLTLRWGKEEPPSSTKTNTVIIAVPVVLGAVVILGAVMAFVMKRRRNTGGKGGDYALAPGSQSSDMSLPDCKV

Sequence	Normalized average relative binding affinity(ARB) (HLA B*1501)	Normalized average relative binding affinity(ARB) (HLA B*5401)	Normalized average relative binding affinity(ARB) (HLA B*5801)	Normalized average relative binding affinity(ARB) (H-2 D^d)	Normalized average relative binding affinity(ARB) (HLA B*5101)	Normalized average relative binding affinity(ARB) (HLA A*3001)	Normalized average relative binding affinity(ARB) (HLA A*3201)	Normalized average relative binding affinity(ARB) (H-2 K^k)	Normalized average relative binding affinity(ARB) (H-2 K^d)	Normalized average relative binding affinity(ARB) (HLA B*5301)	Normalized average relative binding affinity(ARB) (HLA B*5802)	Normalized average relative binding affinity(ARB) (HLA B*1503)	Normalized average relative binding affinity(ARB) (HLA A*6802)	Normalized average relative binding affinity(ARB) (HLA B*3501)	Normalized average relative binding affinity(ARB) (H-2 D^b)	Normalized average relative binding affinity(ARB) (HLA B*0801)
XXXTXXXXX [3064.0077]	0.39	0.61	0.27	0.66	0.77	0.44	0.31	0.19	0.21	0.25	0.74	0.41	0.20	0.54	0.58	0.52
XXXVXXXXX [3064.0078]	0.52	1.00	0.33	0.48	0.67	0.22	0.27	0.49	0.19	0.70	0.53	0.64	0.15	0.17	0.87	0.47
XXXWXXXXX [3064.0079]	0.39	1.0	0.33	0.54	0.82	0.45	0.29	1.0	0.040	1.0	0.72	0.63	0.56	0.32	0.56	0.68
XXXXAXXXX [3064.0081]	0.64	0.29	0.28	0.37	1.0	0.48	0.14	0.14	0.37	0.13	0.56	1.0	0.48	0.57	0.046	0.029
XXXXCXXXX [3064.0082]	0.87	0.39	0.14	0.045	0.38	0.12	0.15	0.095	0.19	0.13	0.53	0.62	0.65	0.37	0.060	0.020
XXXXDXXXX [3064.0083]	0.17	0.27	0.11	0.049	0.34	0.041	0.043	0.026	0.15	0.13	0.12	0.23	0.20	0.25	0.058	0.0054
XXXXEXXXX [3064.0084]	0.42	0.26	0.21	0.059	0.20	0.099	0.066	0.11	0.031	0.15	0.23	0.41	0.20	0.34	0.021	0.014
XXXXFXXXX [3064.0085]	0.52	1.0	0.43	0.16	0.29	0.38	1.0	0.19	0.13	1.0	0.089	0.78	0.87	0.63	0.044	0.21
